# Results published in patent US20090227575A1, “7H-PYRROLO[2,3-H]QUINAZOLINE COMPOUNDS, THEIR USE AS mTOR KINASE AND PI3 KINASE INHIBITORS, AND THEIR [sequence]” (Wyeth, priority 2008, published 2009).
# Experiments:
# Assay type in all cases: biochemical
# Human mTOR = Human mTOR (Homo sapiens, UniProt P42345); assay: mTOR kinase assay (DELFIA format, purified enzyme); set-up: FLAG; settings: read-out: TOR Kinase IC50
# PI3K-gamma = PI3K-gamma (Homo sapiens, UniProt P48736); assay: PI3K-gamma fluorescence polarization assay; settings: read-out: PI3 Kinase γ IC50
# PI3K-gamma, sequence (P48736 whole entry, species assumed): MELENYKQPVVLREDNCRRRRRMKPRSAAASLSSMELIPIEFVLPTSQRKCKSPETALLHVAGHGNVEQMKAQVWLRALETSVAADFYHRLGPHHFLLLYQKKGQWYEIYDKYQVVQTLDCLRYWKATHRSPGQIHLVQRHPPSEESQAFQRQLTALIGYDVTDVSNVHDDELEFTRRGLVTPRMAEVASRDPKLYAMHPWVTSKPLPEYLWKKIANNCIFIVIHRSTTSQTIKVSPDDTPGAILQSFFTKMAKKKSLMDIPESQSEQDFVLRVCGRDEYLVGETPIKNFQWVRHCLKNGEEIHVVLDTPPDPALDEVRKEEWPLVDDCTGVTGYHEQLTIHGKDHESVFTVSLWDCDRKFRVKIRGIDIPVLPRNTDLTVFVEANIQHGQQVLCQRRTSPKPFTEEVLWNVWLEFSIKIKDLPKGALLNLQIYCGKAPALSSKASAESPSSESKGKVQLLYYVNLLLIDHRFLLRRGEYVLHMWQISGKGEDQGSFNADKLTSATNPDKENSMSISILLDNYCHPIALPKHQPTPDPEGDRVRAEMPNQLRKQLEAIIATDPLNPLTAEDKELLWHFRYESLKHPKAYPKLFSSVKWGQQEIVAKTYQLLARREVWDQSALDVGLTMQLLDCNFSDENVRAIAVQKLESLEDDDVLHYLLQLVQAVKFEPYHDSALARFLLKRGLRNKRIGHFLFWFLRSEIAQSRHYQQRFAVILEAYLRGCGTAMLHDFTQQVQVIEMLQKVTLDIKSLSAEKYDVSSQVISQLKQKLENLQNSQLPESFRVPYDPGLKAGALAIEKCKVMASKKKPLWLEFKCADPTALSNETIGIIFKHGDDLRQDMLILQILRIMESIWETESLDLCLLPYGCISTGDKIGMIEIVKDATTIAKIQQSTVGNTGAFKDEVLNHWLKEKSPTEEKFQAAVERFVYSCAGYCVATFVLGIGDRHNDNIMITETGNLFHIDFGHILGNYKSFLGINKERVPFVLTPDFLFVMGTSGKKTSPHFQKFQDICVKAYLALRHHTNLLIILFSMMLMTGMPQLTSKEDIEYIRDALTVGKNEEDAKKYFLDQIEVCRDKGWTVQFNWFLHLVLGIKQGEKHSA
# Method: (§1) The reaction buffer was 20 mM HEPES, pH 7.5, 2 mM MgCl2, 0.05% CHAPS; and 0.01% βME (added fresh). The Stop/Detection Buffer was 100 mM HEPES, pH 7.5, 4 mM EDTA, 0.05% CHAPS; ATP 20 mM in water; PIP2 (diC8, Echelon, Salt Lake City Utah cat #P-4508) 1 mM in water (MW=856.5). The GST-GRP was 1.75 mg/mL or 1.4 mg/mL in 10% glycerol. The Red detector (TAMRA) was 2.5 μM. Nunc 384-well black polypropylene fluorescent plates were used for PI3K assays.
# (§2) The assay is run by placing 5 μL of diluted enzyme per well, then 5 μL of diluted compound (or 9.5 μL enzyme then 0.5 μL compound in DMSO) is added and mixed. Then, 10 μL substrate is added to start the reaction. The samples are incubated 30-60 minutes, then the reaction is stopped by adding 20 μL stop/detector mix. PI3K is diluted with reaction buffer (e.g., 5 μL or 7.5 μL PI3K into 620 μL reaction buffer), and 5 μL of diluted enzyme is used per well. A 5 μL portion of reaction buffer or of drug diluted in buffer (e.g., 4 μL/100 so final DMSO is 1% in reaction) is added to each. Pipetting up and down mixes the samples. Alternatively, the enzyme can be diluted to 1215 μL. In this case 9.8 μL is added per well and 0.2 μL compound is added in DMSO.
# (§3) To prepare 1 mL of substrate solution, 955 μL reaction buffer, 40 μL PIP2, and 2.5 μL ATP are mixed. 10 μL of substrate is added to each well to start the reaction. […] The stop/detector mix is prepared by mixing 4 μL Red detector and 1.6 μL or 2.0 μL GST-GRP with 1 mL stop buffer, which results in 10 nM probe and 70 nM GST-GRP. 20 μL of the stop/detector mix is added to each well to stop the reaction. The plates are read after 30-90 minutes keeping the red probe solutions dark. For the zero time point, stop/detector mix is added to the enzyme just before adding substrate. For an extra control, stop/detector mix is added to buffer (no enzyme) and substrate or to just buffer (no substrate). […] The recommended reaction has 0.06 μL per 20 μL (0.015 μg/20 μL) or 0.01125 μg/15 μL or 0.75 μg/mL.
# (§4) Plates are read on machines with filters for TAMRA. The units are mP with no enzyme controls reading app 190-220 mP units. Fully active enzyme reduces fluorescence polarization down to 70-100 mP after 30 minutes. An active compound raises the mP values halfway to control or to 120-150 mP units.
# PI3K-alpha = PI3K-alpha (Homo sapiens, UniProt P42336); assay: PI3K-alpha fluorescence polarization assay; settings: read-out: PI3 Kinase α IC50
# PI3K-alpha, sequence (P42336 whole entry, species assumed): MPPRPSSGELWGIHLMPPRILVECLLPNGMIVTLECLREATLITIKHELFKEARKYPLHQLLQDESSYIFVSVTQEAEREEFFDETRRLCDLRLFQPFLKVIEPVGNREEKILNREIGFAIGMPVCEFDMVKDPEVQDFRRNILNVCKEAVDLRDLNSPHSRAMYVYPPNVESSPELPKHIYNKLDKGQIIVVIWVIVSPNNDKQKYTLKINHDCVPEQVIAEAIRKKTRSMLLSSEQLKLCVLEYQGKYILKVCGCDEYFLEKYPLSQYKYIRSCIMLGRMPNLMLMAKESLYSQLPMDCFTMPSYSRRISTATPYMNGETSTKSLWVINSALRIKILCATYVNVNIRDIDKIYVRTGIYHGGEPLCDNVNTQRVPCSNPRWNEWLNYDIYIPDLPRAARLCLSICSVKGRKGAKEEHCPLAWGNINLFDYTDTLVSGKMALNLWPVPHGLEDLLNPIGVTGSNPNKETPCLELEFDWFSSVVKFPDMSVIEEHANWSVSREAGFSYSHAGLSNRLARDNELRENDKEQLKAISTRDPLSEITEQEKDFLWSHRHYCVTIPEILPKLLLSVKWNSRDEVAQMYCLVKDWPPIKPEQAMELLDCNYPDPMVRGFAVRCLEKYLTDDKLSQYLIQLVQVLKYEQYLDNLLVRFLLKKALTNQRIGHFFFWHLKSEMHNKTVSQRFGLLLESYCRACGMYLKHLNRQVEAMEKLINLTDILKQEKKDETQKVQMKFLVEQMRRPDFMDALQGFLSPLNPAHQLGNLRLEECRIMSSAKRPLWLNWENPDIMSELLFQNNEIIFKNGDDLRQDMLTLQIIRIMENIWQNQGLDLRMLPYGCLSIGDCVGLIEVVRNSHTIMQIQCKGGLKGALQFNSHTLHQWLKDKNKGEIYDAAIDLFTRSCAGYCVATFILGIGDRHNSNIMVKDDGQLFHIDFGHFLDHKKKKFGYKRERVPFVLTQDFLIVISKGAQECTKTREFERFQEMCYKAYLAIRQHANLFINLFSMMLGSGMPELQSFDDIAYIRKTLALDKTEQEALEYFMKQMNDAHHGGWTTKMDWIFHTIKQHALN
# PI3K-alpha, sequence (P27986 whole entry partner, species assumed): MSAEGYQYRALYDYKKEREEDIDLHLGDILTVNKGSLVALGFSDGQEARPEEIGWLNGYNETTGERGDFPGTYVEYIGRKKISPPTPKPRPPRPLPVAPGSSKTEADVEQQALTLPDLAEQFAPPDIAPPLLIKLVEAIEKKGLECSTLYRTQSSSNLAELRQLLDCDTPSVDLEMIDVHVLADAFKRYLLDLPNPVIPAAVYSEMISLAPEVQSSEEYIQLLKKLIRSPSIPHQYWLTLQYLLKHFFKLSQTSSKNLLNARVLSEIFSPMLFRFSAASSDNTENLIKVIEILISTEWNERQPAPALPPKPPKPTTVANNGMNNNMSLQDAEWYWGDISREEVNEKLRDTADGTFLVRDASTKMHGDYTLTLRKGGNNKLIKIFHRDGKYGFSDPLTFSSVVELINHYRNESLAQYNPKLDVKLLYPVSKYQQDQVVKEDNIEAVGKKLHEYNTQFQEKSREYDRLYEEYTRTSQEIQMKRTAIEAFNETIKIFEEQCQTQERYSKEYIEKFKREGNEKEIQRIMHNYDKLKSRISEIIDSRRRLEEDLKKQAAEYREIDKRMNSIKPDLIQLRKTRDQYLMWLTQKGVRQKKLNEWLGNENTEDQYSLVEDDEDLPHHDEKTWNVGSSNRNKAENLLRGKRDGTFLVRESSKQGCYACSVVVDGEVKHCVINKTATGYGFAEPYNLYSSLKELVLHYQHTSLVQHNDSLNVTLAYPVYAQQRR
# Method: as §1, §2, §3, §4
compound,measurement,setting,value
"CC(O)c1cccc(-c2nc(N3CCOCC3)c3ccc4c(ccn4C)c3n2)c1 (stereo not drawn) [Example 24, 1-[3-(7-methyl-4-morpholin-4-yl-7H-pyrrolo[2,3-h]quinazolin-2-yl)phenyl]ethanol]",IC50,Human mTOR,1650 nM
same,IC50,PI3K-gamma,> 10000 nM
same,IC50,PI3K-alpha,2350 nM
"OCc1cccc(-c2nc(N3CCOCC3)c3ccc4c(ccn4Cc4ccccc4)c3n2)c1 [Example 83, [3-(7-benzyl-4-morpholin-4-yl-7H-pyrrolo[2,3-h]quinazolin-2-yl)phenyl]methanol]",IC50,Human mTOR,1700 nM
same,IC50,PI3K-gamma,320 nM
same,IC50,PI3K-alpha,123 nM
OCc1cccc(-c2nc(N3CCOCC3)c3ccc4[nH]ccc4c3n2)c1 [Example 57],IC50,Human mTOR,235 nM
same,IC50,PI3K-gamma,3580 nM
same,IC50,PI3K-alpha,514 nM
"Cn1ccc2c3nc(-c4ccc(NC(=O)c5ccc(F)cc5)cc4)nc(N4CCOCC4)c3ccc21 [Example 19, 4-fluoro-N-[4-(7-methyl-4-morpholin-4-yl-7H-pyrrolo[2,3-h]quinazolin-2-yl)phenyl]benzamide]",IC50,Human mTOR,1250 nM
same,IC50,PI3K-gamma,6170 nM
same,IC50,PI3K-alpha,12000 nM
"CC(=O)Nc1ccc(-c2nc(N3CCOCC3)c3ccc4c(ccn4C)c3n2)cc1 [Example 16, N-[4-(7-methyl-4-morpholin-4-yl-7H-pyrrolo[2,3-h]quinazolin-2-yl)phenyl]acetamide]",IC50,Human mTOR,370 nM
same,IC50,PI3K-gamma,> 10000 nM
same,IC50,PI3K-alpha,3080 nM
"Cn1ccc2c3nc(-c4ccc(NC(=O)Nc5ccccc5)cc4)nc(N4CCOCC4)c3ccc21 [Example 10, 1-[4-(7-methyl-4-morpholin-4-yl-7H-pyrrolo[2,3-h]quinazolin-2-yl)phenyl]-3-phenylurea]",IC50,Human mTOR,21 nM
same,IC50,PI3K-gamma,247 nM
same,IC50,PI3K-alpha,71 nM
"Cn1ccc2c3nc(-c4ccc(NC(=O)NCc5ccccn5)cc4)nc(N4CCOCC4)c3ccc21 [Example 15, 1-[4-(7-methyl-4-morpholin-4-yl-7H-pyrrolo[2,3-h]quinazolin-2-yl)phenyl]-3-(pyridin-2-ylmethyl)urea]",IC50,Human mTOR,2150 nM
same,IC50,PI3K-gamma,3310 nM
same,IC50,PI3K-alpha,2520 nM
"Cn1ccc2c3nc(-c4cc(O)ccc4Cl)nc(N4CCOCC4)c3ccc21 [Example 53, 4-chloro-3-(7-methyl-4-morpholin-4-yl-7H-pyrrolo[2,3-h]quinazolin-2-yl)phenol]",IC50,Human mTOR,910 nM
same,IC50,PI3K-gamma,1010 nM
same,IC50,PI3K-alpha,214 nM
"CN(C)CCn1ccc2c3nc(-c4cccc(O)c4)nc(N4CCOCC4)c3ccc21 [Example 32, 3-{7-[2-(dimethylamino)ethyl]-4-morpholin-4-yl-7H-pyrrolo[2,3-h]quinazolin-2-yl}phenol]",IC50,Human mTOR,4550 nM
same,IC50,PI3K-gamma,3620 nM
same,IC50,PI3K-alpha,322 nM
"CN(C)CCNC(=O)Nc1ccc(-c2nc(N3CCOCC3)c3ccc4c(ccn4C)c3n2)cc1 [Example 4, 1-[2-(dimethylamino)ethyl]-3-[4-(7-methyl-4-morpholin-4-yl-7H-pyrrolo[2,3-h]quinazolin-2-yl)phenyl]urea]",IC50,Human mTOR,2050 nM
same,IC50,PI3K-gamma,2840 nM
same,IC50,PI3K-alpha,728 nM
"CS(=O)(=O)n1ccc2c3nc(-c4cncc(O)c4)nc(N4CCOCC4)c3ccc21 [Example 76, 5-[7-(methylsulfonyl)-4-morpholin-4-yl-7H-pyrrolo[2,3-h]quinazolin-2-yl]pyridin-3-ol]",IC50,Human mTOR,130 nM
same,IC50,PI3K-gamma,82 nM
same,IC50,PI3K-alpha,65 nM
"CC(=O)NCc1cccc(-c2nc(N3CCOCC3)c3ccc4c(ccn4C)c3n2)c1 [Example 44, N-[3-(7-methyl-4-morpholin-4-yl-7H-pyrrolo[2,3-h]quinazolin-2-yl)benzyl]acetamide]",IC50,Human mTOR,4000 nM
same,IC50,PI3K-gamma,9500 nM
same,IC50,PI3K-alpha,9360 nM
"O=S(=O)(c1ccccc1)n1ccc2c3nc(-c4cccc(CO)c4)nc(N4CCOCC4)c3ccc21 [Example 70, {3-[4-morpholin-4-yl-7-(phenylsulfonyl)-7H-pyrrolo[2,3-h]quinazolin-2-yl]phenyl}methanol]",IC50,Human mTOR,5800 nM
same,IC50,PI3K-gamma,2070 nM
same,IC50,PI3K-alpha,168 nM
"CN(C)S(=O)(=O)Nc1cccc(-c2nc(N3CCOCC3)c3ccc4c(ccn4C)c3n2)c1 [Example 55, N,N-dimethyl-N′-[3-(7-methyl-4-morpholin-4-yl-7H-pyrrolo[2,3-h]quinazolin-2-yl)phenyl]sulfamide]",IC50,Human mTOR,525 nM
same,IC50,PI3K-gamma,6160 nM
same,IC50,PI3K-alpha,4340 nM
"Cn1ccc2c3nc(-c4cnc(N)nc4)nc(N4CCOCC4)c3ccc21 [Example 43, 5-(7-methyl-4-morpholin-4-yl-7H-pyrrolo[2,3-h]quinazolin-2-yl)pyrimidin-2-amine]",IC50,Human mTOR,247 nM
same,IC50,PI3K-gamma,426 nM
same,IC50,PI3K-alpha,48 nM
"CN(C)CCn1ccc2c3nc(-c4ccc(NC(=O)Nc5ccncc5)cc4)nc(N4CCOCC4)c3ccc21 [Example 33, 1-(4-{7-[2-(dimethylamino)ethyl]-4-morpholin-4-yl-7H-pyrrolo[2,3-h]quinazolin-2-yl}phenyl)-3-pyridin-4-ylurea]",IC50,Human mTOR,15 nM
same,IC50,PI3K-gamma,862 nM
same,IC50,PI3K-alpha,222 nM
"COc1ncc(-c2nc(N3CCOCC3)c3ccc4c(ccn4C)c3n2)cn1 [Example 50, 2-(2-methoxypyrimidin-5-yl)-7-methyl-4-morpholin-4-yl-7H-pyrrolo[2,3-h]quinazoline]",IC50,Human mTOR,2350 nM
same,IC50,PI3K-gamma,> 10000 nM
same,IC50,PI3K-alpha,668 nM
"Cn1ccc2c3nc(-c4ccc(N)nc4)nc(N4CCOCC4)c3ccc21 [Example 42, 5-(7-methyl-4-morpholin-4-yl-7H-pyrrolo[2,3-h]quinazolin-2-yl)pyridin-2-amine]",IC50,Human mTOR,630 nM
same,IC50,PI3K-gamma,3590 nM
same,IC50,PI3K-alpha,616 nM
"CCNC(=O)Nc1ccc(-c2nc(N3CCOCC3)c3ccc4c(ccn4C)c3n2)cc1 [Example 3, 1-ethyl-3-[4-(7-methyl-4-morpholin-4-yl-7H-pyrrolo[2,3-h]quinazolin-2-yl)phenyl]urea]",IC50,Human mTOR,35 nM
same,IC50,PI3K-gamma,4040 nM
same,IC50,PI3K-alpha,2110 nM
"Cn1ccc2c3nc(-c4cccc(C(O)c5ccccc5)c4)nc(N4CCOCC4)c3ccc21 (stereo not drawn) [Example 29, [3-(7-methyl-4-morpholin-4-yl-7H-pyrrolo[2,3-h]quinazolin-2-yl)phenyl](phenyl)methanol]",IC50,Human mTOR,3800 nM
same,IC50,PI3K-gamma,4070 nM
same,IC50,PI3K-alpha,2970 nM
"Oc1cccc(-c2nc(N3CCOCC3)c3ccc4c(ccn4Cc4ccccc4)c3n2)c1 [Example 46, 3-(7-benzyl-4-morpholin-4-yl-7H-pyrrolo[2,3-h]quinazolin-2-yl)phenol]",IC50,Human mTOR,420 nM
same,IC50,PI3K-gamma,209 nM
same,IC50,PI3K-alpha,216 nM
"3-(7-methyl-4-morpholin-4-yl-7H-pyrrolo[2,3-h]quinazolin-2-yl)aniline [Example 41]",IC50,Human mTOR,1450 nM
same,IC50,PI3K-gamma,> 10000 nM
same,IC50,PI3K-alpha,> 10000 nM
"Cn1ccc2c3nc(-c4ccc(NC(=O)Nc5ccccn5)cc4)nc(N4CCOCC4)c3ccc21 [Example 9, 1-[4-(7-methyl-4-morpholin-4-yl-7H-pyrrolo[2,3-h]quinazolin-2-yl)phenyl]-3-pyridin-2-ylurea]",IC50,Human mTOR,75 nM
same,IC50,PI3K-gamma,5130 nM
same,IC50,PI3K-alpha,2700 nM
"CS(=O)(=O)n1ccc2c3nc(-c4cnc(N)nc4)nc(N4CCOCC4)c3ccc21 [Example 73, 5-[7-(methylsulfonyl)-4-morpholin-4-yl-7H-pyrrolo[2,3-h]quinazolin-2-yl]pyrimidin-2-amine]",IC50,Human mTOR,63 nM
same,IC50,PI3K-gamma,198 nM
same,IC50,PI3K-alpha,62 nM
"Cn1ccc2c3nc(-c4ccc(NC(=O)Nc5cccc(Cl)c5)cc4)nc(N4CCOCC4)c3ccc21 [Example 13, 1-(3-chlorophenyl)-3-[4-(7-methyl-4-morpholin-4-yl-7H-pyrrolo[2,3-h]quinazolin-2-yl)phenyl]urea]",IC50,Human mTOR,260 nM
same,IC50,PI3K-gamma,234 nM
same,IC50,PI3K-alpha,62 nM
"Cn1ccc2c3nc(-c4ccc(O)nc4)nc(N4CCOCC4)c3ccc21 [Example 48, 5-(7-methyl-4-morpholin-4-yl-7H-pyrrolo[2,3-h]quinazolin-2-yl)pyridin-2-ol]",IC50,Human mTOR,7550 nM
same,IC50,PI3K-gamma,> 10000 nM
same,IC50,PI3K-alpha,> 10000 nM
"O=S(=O)(c1ccccc1)n1ccc2c3nc(-c4cccc(O)c4)nc(N4CCOCC4)c3ccc21 [Example 69, 3-[4-morpholin-4-yl-7-(phenylsulfonyl)-7H-pyrrolo[2,3-h]quinazolin-2-yl]phenol]",IC50,Human mTOR,1110 nM
same,IC50,PI3K-gamma,1130 nM
same,IC50,PI3K-alpha,274 nM
